These results are taken from BindingDB's records for doi:10.1161/01.cir.102.23.2836 (Nih, 2000).

Several values for one entry are separate records, joined by “and”; a condition that tells them apart may be missing. Equal entries are not always repeated.

For assay [1], the target named is T1, 5-hydroxytryptamine receptor 2C (Rattus norvegicus, UniProt P08909).
T1 sequence (P08909 whole entry): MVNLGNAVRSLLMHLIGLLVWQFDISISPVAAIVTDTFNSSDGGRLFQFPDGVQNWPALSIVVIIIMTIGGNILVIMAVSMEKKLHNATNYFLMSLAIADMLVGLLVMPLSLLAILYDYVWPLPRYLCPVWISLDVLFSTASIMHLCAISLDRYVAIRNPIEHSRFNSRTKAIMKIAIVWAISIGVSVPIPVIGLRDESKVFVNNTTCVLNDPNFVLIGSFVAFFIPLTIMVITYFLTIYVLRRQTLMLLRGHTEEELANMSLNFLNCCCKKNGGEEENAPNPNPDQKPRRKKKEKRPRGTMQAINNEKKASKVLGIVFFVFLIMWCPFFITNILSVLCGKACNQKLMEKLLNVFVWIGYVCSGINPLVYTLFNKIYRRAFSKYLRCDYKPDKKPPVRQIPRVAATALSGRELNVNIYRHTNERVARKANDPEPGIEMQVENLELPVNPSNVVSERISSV

Assay [2] has as its target 5-hydroxytryptamine receptor 2B (Homo sapiens, UniProt P41595).

Chain of 5-hydroxytryptamine receptor 2B (P41595 whole entry): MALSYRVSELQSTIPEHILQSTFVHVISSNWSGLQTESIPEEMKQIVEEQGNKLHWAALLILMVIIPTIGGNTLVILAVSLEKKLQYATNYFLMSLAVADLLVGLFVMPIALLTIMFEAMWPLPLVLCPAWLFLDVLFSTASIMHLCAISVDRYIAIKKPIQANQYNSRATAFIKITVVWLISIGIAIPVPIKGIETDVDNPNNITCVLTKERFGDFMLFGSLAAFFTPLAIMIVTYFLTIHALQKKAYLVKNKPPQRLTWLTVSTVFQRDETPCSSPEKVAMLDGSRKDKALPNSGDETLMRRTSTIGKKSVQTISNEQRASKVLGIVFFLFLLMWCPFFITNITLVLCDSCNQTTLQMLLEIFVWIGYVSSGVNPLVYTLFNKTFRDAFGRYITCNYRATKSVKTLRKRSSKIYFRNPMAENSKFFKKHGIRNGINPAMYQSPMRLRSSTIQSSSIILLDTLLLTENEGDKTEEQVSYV

`CC[C@@H](CO)NC(=O)[C@@H]1C=C2c3cccc4c3c(cn4C)C[C@H]2N(C)C1` returned a Ki in assay [1] of 1.8 nM.

With `CC(C)(N)Cc1ccccc1` [2-methyl-1-phenylpropan-2-amine], the Ki in assay [2] and in assay [1] was over 10000 nM in each case.

Turning to `CN1C[C@H](C(=O)N[C@]2(C)O[C@@]3(O)[C@@H]4CCCN4C(=O)[C@H](Cc4ccccc4)N3C2=O)C=C2c3cccc4[nH]cc(c34)C[C@H]21` [12'-hydroxy-2'-methyl-5'alpha-(phenylmethyl)ergotaman-3',6',18-trione], the Ki in assay [2] was found to be 3 nM; in assay [1], 12 nM.

As to `O=c1n(CCCN2CCN(c3cccc(Cl)c3)CC2)nc2ccccn12` [2-{3-[4-(3-chlorophenyl)piperazin-1-yl]propyl}[1,2,4]triazolo[4,3-a]pyridin-3(2H)-one], the Ki in assay [1] is 402 nM.

The molecule `CC[C@@H](CO)NC(=O)[C@@H]1C=C2c3cccc4[nH]cc(c34)C[C@H]2N(C)C1` [Methylergometrine] yielded a Ki in assay [2] of 0.49 nM.

`CCNC(C)Cc1cccc(C(F)(F)F)c1` (stereo not drawn) [NSC_3337]: the Ki in assay [1] is 3180 nM and 6250 nM and 3420 nM.

In the case of `NCC[C@H](Oc1ccc(C(F)(F)F)cc1)c1ccccc1` [NORFLUOXETINE], the inhibition constant (Ki) in assay [2] was determined as 5060 nM; in assay [1], 286 nM.

In assay [1], `Clc1cccc(N2CCNCC2)c1` [mCPP] returned a Ki of 59 nM.

On to `C[C@H](N)Cc1cccc(C(F)(F)F)c1` [Norfenfluramine (+)], for which the Ki in assay [2] is 52.1 nM and 11.2 nM and 47.8 nM; in assay [1], 557 nM and 324 nM and 814 nM.
